Data as given in patent US9375436B2, “Androgen treatment in females” (priority 2004, dated 2016).
Where “and” joins values, the source holds several entries; their conditions need not be identical. Equal values may be shown once.

Legend:
[1] = system: person with evidence of decreased ovarian reserve; details: human, in vivo
[2] = system: patients with evidence of decreased ovarian reserve; assay: IVF cycles before and after DHEA treatment (Example 2); assay type: in vivo, human
Description: Cumulative embryo score is determined by scoring day 3 embryos and multiplying the number of cells in the embryo by the embryo grade. Embryo grade is a judgment of the embryologist on embryo quality from 1 to 5. Most good embryos are scored 4, with 5 reserved for exceptional embryos. The grade is based on the uniformity of the cells, the color and consistency of the cytoplasm, and the amount of fragmentation. Normal embryos are less than 5% fragmented. A person with three eight cell embryos each with a grade of four would have a cumulative embryos score of 96, the product of 3×8×4.
In another study, thirty (30) patients with evidence of decreased ovarian reserve were given supplemental DHEA 25 mg three times a day, for a total of 75 mg per day, for an average of about 4 months before beginning ovulation induction for IVF. Twelve patients contributed data from cycles both pre-DHEA and post-DHEA, eleven patients contributed data from cycles only pre-DHEA, and seven patients contributed data from cycles only post-DHEA. Patients' response to ovulation induction before DHEA treatment was compared to patients' response to ovulation induction after DHEA treatment with regard to peak estradiol, oocyte production, and embryos transferred and embryo quality.

DOR patients = assay: Pregnancy outcome at various AMH levels under DHEA supplementation; assay type: in vivo, human
Text: Another study from our center further supports these conclusions (FIG. 22). FIG. 22 is a graph showing spontaneous pregnancy loss in spontaneous and IVF pregnancies at various AMH levels. The figure depicts at various AMH levels in the left column IVF pregnancies (IVF), as previously reported (26), and in the right column spontaneously conceived pregnancies (SP). Each column represents 100% of all pregnancies established, separated for live births (black section), voluntary termination of pregnancy (TOP; usually for aneuploidy) and spontaneous miscarriages (SAB).
In that study (FIG. 22), we investigated live birth rates after IVF at extremely low anti-Müllerian hormone (AMH) levels and were surprised how low miscarriage rates were between non-detectable levels of AMH and 0.4 ng/mL. Losses then increased between AMH 0.41-1.05 ng/mL to over 50 percent, the expected rate in DOR patients, only to fall, once again, to very low levels above AMH 1.05 ng/mL. […]
AMH<1.05 ng/mL represents more severe DOR. […] Chances of clinical pregnancies, miscarriages, terminations of pregnancy, and viable deliveries were then determined among severe DOR patients, depending on AMH levels (below detection, <0.1 ng/mL, 0.1-0.4 ng/mL, 0.41-0.8 ng/mL, 0.81-1.05 ng/mL) and with milder DOR (>1.06 ng/mL). […]

[3] = system: women waiting to go into an IVF cycle; assay: Spontaneous conceptions in women on DHEA waiting to go into IVF; assay type: in vivo, human
Description: Additionally, with DHEA treatment, there may be an unexpectedly large number of spontaneous conceptions in women waiting to go into an IVF cycle. DHEA treatment includes administering a dose of between about 50 mg/day and about 100 mg/day, preferably between about 60 mg/day and about 80 mg/day, and in one study about 75 mg/day to a human. Particularly, the DHEA treatment may be administered to a premenopausal person with diminished ovarian function. DHEA may have an effect after about 4 consecutive weeks. However, DHEA has a more significant effect after about 8 weeks or about 2 months of administration, but its effect may continue to increase to about four months, and further may continue past four months of use. Specifically, DHEA treatment has a statistically significant effect after about at least 16 weeks or about at least 4 months of administration.
The DHEA treatment may be at least about 2 weeks before spontaneous conception occurs. In the population of women who are waiting to go into IVF, the spontaneous pregnancy rate is a fraction of about 1% per month. However, in the population of women who have been on DHEA treatment, there were 13 spontaneous pregnancies out of 60 women. As such, DHEA treatment increases spontaneous pregnancies in one study at least about 21 fold. […]

[4] = Post DHEA, 19 cycles, 16.1 ± 2.4 weeks of DHEA 75 mg per day

C[C@]12CC[C@H](O)CC1=CC[C@@H]1[C@@H]2CC[C@]2(C)C(=O)CC[C@@H]12 [DHEA, Dehydroepiandrosterone]
(log) peak E2 increase [1]: 0.47±0.06 | aneuploid embryos amongst 10 embryos (PGD) [1]: nine | average embryo cell count [1]: 6.83±1.37 and 7.2±1.15 | cryopreservable embryo yield increase [1]: 1.4±0.14 embryos per cycle | cryopreservable embryos [1]: 11 | embryo morphology [1]: 3.6±0.5 and 3.7±0.5 | embryos in a cycle [1]: 9 and 10 and 11 | embryos of high enough quality to undergo cryopreservation [1]: 49 | embryos produced [1]: 16 | oocyte yield increase [1]: 2.5±0.34 oocytes per cycle | oocytes in a cycle [1]: 13 and 16 and 19 | oocytes retrieved [1]: 17 | total viable embryos cryopreserved [1]: 50 | oocytes produced ([1]; po): 19 | patients with continuing pregnancies ([2]; 5 of 45 patients): 11% | patients using DHEA who have conceived ([2]; 7 of 45 patients): 16% | mean increase in the number of fertilized oocytes (paired comparisons) ([2]; 12 patients): 1.42±0.63 | Average Day 3 embryo cell count ([2]; Post DHEA, 19 cycles): 4.5 ± 0.5 | Average Day 3 embryo grade ([2]; Post DHEA, 19 cycles): 2.8 ± 0.3 | Fertilized eggs ([2]; Post DHEA, 19 cycles): 4.6 ± 0.8 | Number of Day 3 embryos ([2]; Post DHEA, 19 cycles): 3.2 ± 0.6 | Oocytes ([2]; Post DHEA, 19 cycles): 5.8 ± 1.0 | Peak Estradiol ([2]; Post DHEA, 19 cycles): 1192 ± 904 | Transferred embryos ([2]; Post DHEA, 19 cycles): 2.6 ± 0.4 | Cancellation [2, 4]: 5% | Cancellation (cycles cancelled / cycles) [2, 4]: 1 of 19 and 1/19 | Positive hCG (per transfer cycle) ([2]; Post DHEA, cycles after an average of 4 months of DHEA treatment): 4/18 | increase in cumulative embryo score ([2]; after versus prior to DHEA use): about 64 | improved overall embryo score, model adjusted for oocyte number ([2]; post versus pre DHEA): 32.8 | increased fertilization, model adjusted for oocyte number ([2]; post versus pre DHEA): 1.93 fertilized oocytes | increased numbers of day-three embryos, model adjusted for oocyte number ([2]; post versus pre DHEA): 1.36 embryos | chance of live birth per treatment cycle (DOR patients; DOR patients under DHEA supplementation, up to AMH 1.05 ng/mL): approximately 5% | pregnancy chance per IVF cycle (DOR patients; under DHEA supplementation, absence of detectable AMH): ~5% | increase of spontaneous pregnancies ([3]; versus fraction of about 1% per month in women waiting for IVF): at least 21 fold | spontaneous pregnancies out of 60 women ([3]; women on DHEA treatment): 13
